Assay results: article PMC10447463, “Data-mining unveils structure–property–activity correlation of viral infectivity enhancing self-assembling peptides” (Nature Communications, 2023)
Values joined by “and” are separate entries in the source; they are usually repeats but may differ in a detail not shown here. Equal entries are not always repeated. Where two headings read alike, the source gives them in different places.

What was measured:
[1] = tested on: TZM-bl cells; type: cell-based; conditions: CellTiter-Glo, mean of n = 3 replicates; for viability 0.26 µM: peptide 0.26 µM; for viability 1.3 µM: peptide 1.3 µM; for viability 6.5 µM: peptide 6.5 µM
Experimental: The cell viability after addition of peptides to TZM–bl cells was studied via the CellTiter–Glo assay. To this end, 10,000 cells were seeded and on the next day serial diluted peptides were added. After 3 days the supernatant was removed and 100 µL CellTiter–Glo Reagent 1:1 diluted in PBS was added. After 10 min 50 µL was transferred to white microplate and luminescence was recorded by Orion microplate luminometer.
2. Cell Viability of Representatively Selected Peptides
Figure S 2 Cell Viability normalized to 100% metabolic activity as determined by CellTiterGlo Assay of 57 representatively selected peptides from the library. The selection represents infectivity enhancing and not […]
concentration. Error bars indicate standard deviation from triplicate measurements. Source data for Figure S2 […]
Figure S3 Cell Viability normalized to 100% metabolic activity determined by CellTiterGlo Assay of 20 peptides reported in literature. 33,34,43–48,35–42 Cell viability (> 80%) is maintained for all peptides at 1.3 µM concentration regardless of the preparation method, which is A PNF formation method by dilution of 10 mg/mL peptide stock in DMSO in PBS to 1 mg/mL or B preparation according to literature reported protocol (SI Section 8). Error bars indicate standard deviation from triplicate measurements. Source data for Figure S3 is provided.

[2] = β-sheet content by ATR-FT-IR; type: physicochemical; conditions: for b -sheet / %: Fig. S7 panel A, β-sheet content by ATR-FT-IR
Summary of the method: (§1)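 Conversion rate: fluorescamine fluorescence (ex 365/em 470 nm, 20 min RT) of 3 kDa filtrate versus unfiltered PNF, CR = 100 − 100 × filtrate/original intensity, triplicates. β-sheet content came from ATR FT-IR of lyophilized 1 mg/mL PNF powder, 64 scans.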

[3] = ref sieste 2021 or Schilling2019, cited from earlier work
Description: Supplement 41467_2023_40663_MOESM7_ESM.zip/FigS17.csv, table | column: Conversion Rate / % ( from sieste 2021 or Schilling2019)

[4] = Conversion rate (CR) assay with fluorescamine; type: physicochemical; parameters: key to CR: % = 100−100×filtrate/original fluorescence intensity
Summary of the method: as §1

[5] = previously reported peptides only

Substance | viability 0.26 µM [1] | viability 1.3 µM [1] | viability 6.5 µM [1] | FTIR ß-sheet content/ % ([2]; ATR-FT-IR) | Conversion Rate / % ([4]; fluorescamine assay) [%] | Conversion Rate / % [4] [%] | also measured
KIKQIINM [JGA2] | 123.3 | 117.7 | 101.1 | 44% | – | – | FTIR ß-sheet content/ % [2]: 44%
CSISIQINM [TM145] | – | – | – | – | – | – | Conversion Rate / % ( from sieste 2021 or Schilling2019) [3]: 86%
KLKQLL | – | – | – | – | – | – | b -sheet / % [2]: 31.78%
CKWKWQW [KB4] | 110.3 | 107 | 96.91 | – | – | – | –
KIKIKIQINMWQ [VH9] | 103.6 | 97.29 | 82.19 | – | – | – | –
CRFRVPF [CN8] | – | – | – | 11.43% | 97.05 | – | –
QCKFKFQFNM [CK8] | – | – | – | – | 98.94 | 98.94 | –
QCKIKIQI [CK3] | 95.48 | 97.81 | 91.95 | – | – | – | –
KFKFQFNM [BL6a] | – | – | – | 40% and 40.31% | 98.53 | 98.53 | Conversion Rate / % ( from sieste 2021 or Schilling2019) [3]: 91%; FTIR ß-sheet content/ % [2]: 40.31%
KIKIKIQI [TG13] | – | – | – | – | – | – | Conversion Rate / % ( from sieste 2021 or Schilling2019) [3, 5]: 80%
CKFKQFF [CK15] | – | – | – | 45.41% | 90.05 | 90.05 | FTIR ß-sheet content/ % [2]: 45.41%
KIKIQIC [TM112 / CN11] | 99.13 | 101.3 | 97.07 | 53% and 52.93% | 51.55 | – | –
CEIEIQINM [TM144] | – | – | – | – | – | – | Conversion Rate / % ( from sieste 2021 or Schilling2019) [3]: 43%
CEFEFQFNMWQ [TM140] | 125.8 | 116.7 | 98.23 | 51% and 51.48% | 98.63 | – | –
KFKFKFQF [TG18] | – | – | – | – | – | – | Conversion Rate / % ( from sieste 2021 or Schilling2019) [3, 5]: 94%
RGDKIKIQIC [MG7/CN1] | 116.2 | 110.7 | 92.54 | – | – | – | –
CEIEIQI [AR2/ TM142] | – | – | – | – | – | – | Conversion Rate / % ( from sieste 2021 or Schilling2019) [3]: 59%
KIKQII [msis21] | – | – | – | 39% and 38.67% | 19.94 | 19.94 | Conversion Rate / % ( from sieste 2021 or Schilling2019) [3, 5]: 6%; FTIR ß-sheet content/ % [2]: 38.67%
KFKFQFNMW | – | – | – | – | – | – | b -sheet / % [2]: 38.191%
CHLHLQL [CN9] | 107.2 | 104.6 | 96.74 | 49.52% | 96.58 | – | –
KLKQLL [KM27 / psis14] | – | – | – | 0% | – | – | –
QCKFKFQF [CK9] | 104.7 | 139.5 | 96.02 | – | – | – | –
QCKIKIQINM [CK2] | 114.5 | 100.8 | 83.71 | – | 89.7 | 89.7 | –
CKFKFQFW [TM72] | 91.88 | 85.39 | 82.4 | 43% | – | – | –
CKFKFQFNM [BL3] | – | – | – | 41% | 99.03 | 99.03 | Conversion Rate / % ( from sieste 2021 or Schilling2019) [3]: 88%; FTIR ß-sheet content/ % [2]: 41%

Substance | viability 0.26 µM [1] | viability 1.3 µM [1] | viability 6.5 µM [1] | FTIR ß-sheet content/ % ([2]; ATR-FT-IR) | Conversion Rate / % ([4]; fluorescamine assay) [%] | Conversion Rate / % [4] [%] | also measured
RGDCKIKIQINM [TM45] | 111.8 | 107.9 | 102.5 | – | – | – | –
KFKFQFW [TM71] | 107.5 | 104.2 | 102.2 | 0% | – | – | –
CKFKQFFNMWQ [CK13] | 122.3 | 108 | 88.49 | 59% and 59.11% | 98.72 | 98.72 | FTIR ß-sheet content/ % [2]: 59.11%
QCKAKAQANMWQ [CK22] | 96.23 | 96.71 | 85.72 | – | 89.28 | 89.28 | –
KLKLQLL [TG4 / (KM2)] | – | – | – | 0% | – | – | –
RGDCKFKFQF [TM64/ CN15] | 108.7 | 107.1 | 101 | 47% and 46.68% | 85.47 | – | –
CKIKIQINMWQ | – | – | – | – | – | – | CR / % ([4]; Fig. S7 panel B, conversion rate, fluorescamine assay): 89.1%; CR ([4]; conversion rate, fluorescamine assay): 89.15; b -sheet / % [2]: 44.89%
KAKAQA [JJA2 / TM153] | 119.1 | 118.6 | 109.1 | 40% and 40.34% | 0.3138 | 0.3138 | FTIR ß-sheet content/ % [2]: 40.34%
CKAKAQA [TM155] | – | – | – | – | – | – | Conversion Rate / % ( from sieste 2021 or Schilling2019) [3]: 44%
QCKFKQFFNMWQ [CK10] | 119.6 | 108.9 | 99.32 | 42% and 41.78% | 98.72 | 98.72 | FTIR ß-sheet content/ % [2]: 41.78%
QCKFKQFFNM [CK11] | – | – | – | 42% and 41.84% | 98.67 | 98.67 | FTIR ß-sheet content/ % [2]: 41.84%
CKIKQII [MG4a] | – | – | – | 25% | – | – | Conversion Rate / % ( from sieste 2021 or Schilling2019) [3, 5]: 55%; FTIR ß-sheet content/ % [2]: 25%
CQFQFQF [QBL4] | 110.4 | 111.2 | 99.59 | – | – | – | –
KIKIKIKIYYYY [JR7] | 98.76 | 92.93 | 78.89 | 0% | – | – | –
CKAKAQANMWQ [BL8] | – | – | – | – | 92.9 | 92.9 | Conversion Rate / % ( from sieste 2021 or Schilling2019) [3]: 92%
RGDKIKIQI | – | – | – | – | – | – | b -sheet / % [2]: 40.49%
HHHHKIKIKIKIYYYY [TM6] | 112.4 | 103.8 | 86.78 | 0% | – | – | –
QCKFKFQFNMWQ [CK7] | 107 | 97.9 | 88.11 | 47% and 47.05% | 98.91 | 98.91 | FTIR ß-sheet content/ % [2]: 47.05%
QCKIKIQINMWQ [EF-C opt] | 100.5 | 106.5 | 85.71 | 48% and 48.38% | 93.68 | 93.68 | FTIR ß-sheet content/ % [2]: 48.38%
CRFRFQF [CN10] | 93.96 | 90.72 | 89.78 | 39.77% | 98.13 | – | –
QCKFKQFF [CK12] | – | – | – | 0% | – | – | –
CKAKAQANM [BL9] | – | – | – | – | 57.73 | 57.73 | Conversion Rate / % ( from sieste 2021 or Schilling2019) [3]: 38%
RGDSKIKIQIC [TM113 / RC11] | 92.36 | 89.65 | 83.18 | 39% | – | – | –
CKFKQFFNM [CK14] | 126.1 | 113.2 | 106.7 | 0% | – | – | –
